The record followed here is patent US6441027B1, “Method of regulating the female reproductive system through angiogenesis inhibitors” (Children's Medical Center Corporation, priority 1996, dated 2002).

“Also recorded” adds a separate entry of the source.

The subject of one series is gravid uteri. The series can be described thus: Gravid uterine weight after single dose. It is filed as in vivo, mouse. An excerpt:
C57BL/6 male and female mice greater than seven weeks old were obtained from Takonic (Germantown, N.Y.). The mice were acclimated for at least five days prior to mating and housed in a twelve hour on and twelve hour off light schedule. The mice were mated in the evenings and vaginal plugs were checked for the next morning. Mating in mice is normally detected by the occurrence of vaginal plugs, which are formed by a mixture of the secretions of the vesicular and coagulating glands of the male and usually fill the vagina from cervix to vulva. The day of plugging was labeled Embryonic day 0 (E0). All animal studies were conducted according to the protocols approved by the Animal Ethics Committee of Children's Hospital. Plugged female mice were randomized and received either AGM-1470 30 mg/kg s.c. or saline on E1, 7, or 14. The dependence of female reproductive system on angiogenesis was examined by treating sexually mature inseminated and cycling mice with selective angiogenesis inhibitor AGM-1470.
Gravid uteri and ovaries were resected enbloc and weighed. Gravid uterine weight (grams wet weight, mean SE, n=3/day) in the control group increased exponentially from E6 (0.20±0.01), to E9 (0.53±0.05), E13 (3.78±0.36), and E18 (12.87±0.62). Gravid uterine weights from mice treated with AGM-1470 on E1 had no weight increase after E9 [E6 (0.29±0.01), E9 (0.63±0.01), E13 (0.72±0.08, p<0.05), and E18 (0.68±0.02, p<0.05)]. Gravid uterine weights from mice treated with AGM-1470 on E7 increased initially but then regresses after E13 [E9 (0.71±0.01), E13 (2.03±0.14, p<0.05), and E18 (1.08±0.06, p<0.05)].

The test system of a further series is inseminated mice. Nature of the series: Gross morphology and hematoxylin/eosin histology of gravid uteri, embryos and ovaries. It is filed as in vivo, mouse. How it is done: FIGS. 1A-1I show the gross morphology of gravid mouse uteri. Inseminated mice were treated with AGM-1470 30 mg/kg s.c. or saline on Embryonic day 1 (E1) or E7, and mice were sacrificed at E9, 13 or 18. FIG. 1A, 1B, and 1C show the normal pattern of growth of fetuses on E9, E13 and E18.
FIGS. 2A-2F show hematoxylin/eosin staining of mouse embryos on E9. Inseminated mice were treated with AGM-1470 […] s.c. or saline on E1 or E7, and mice were sacrificed at E9. Uteri were resected and stained with hematoxylin/eosin as described in the material and methods section. […] (P−placenta, D=decidua).
Gravid uteri and ovaries were resected enbloc, weighed, fixed and Carnoy's fixative, and embedded in paraffin according to standard histological techniques. Sections were cut at 6 to 10 micrometers and stained with hematoxylin and eosin. When AGM-1470 was injected on E14, fetuses were allowed to come to term.

For `CO[C@@H]1[C@H](OC(=O)NC(=O)CCl)CC[C@]2(CO2)[C@H]1[C@@]1(C)O[C@@H]1CC=C(C)C` [AGM-1470, O-chloroacetylcarbamoyl fumagillol], the gravid uterine weight with gravid uteri (treated on E1, weighed E6, n=3) is 0.29±0.01 grams wet weight; in the series with gravid uteri (treated on E1, weighed E9, n=3) it was 0.63±0.01 grams wet weight; in the series with gravid uteri (treated on E1, weighed E13, n=3) it was 0.72±0.08 grams wet weight; in the series with gravid uteri (treated on E1, weighed E18, n=3) it was 0.68±0.02 grams wet weight; in the series with gravid uteri (treated on E7, weighed E9, n=3), 0.71±0.01 grams wet weight; with gravid uteri (treated on E7, weighed E13, n=3), 2.03±0.14 grams wet weight. Moreover, the gravid uterine weight in the series on gravid uteri (treated on E7, weighed E18, n=3) turned out to be 1.08±0.06 grams wet weight. For the same compound, the “placental development (histology)” value in the series on inseminated mice (30 mg/kg on E1) is “failure of placental development”; with inseminated mice (30 mg/kg on E7), “inhibition of placental and fetal development; also recorded: decrease in nucleated red blood cells and labyrinth structure in the placenta”. The “gross morphology of gravid uteri” value in the series on inseminated mice (30 mg/kg s.c. on E7) is reported as “hemorrhage around the implantation sites by E13; also recorded: resorption by E18”; in the series with inseminated mice (treated on E1, after E9), “failure of further growth with resorption”. For the same compound, the “fetal histology on E9” value in the series on inseminated mice (both treated groups (E1 or E7)) was “Fetal disorganization”. Further, the “embryo histology on E9” value with inseminated mice (injected on E1) is listed as “small, disorganized embryo”. In addition, the “nucleated red blood cells in E9 embryos” value with inseminated mice (injected on E7) is listed as “reduced nucleated red blood cells in the embryo; also recorded: marked decrease in nucleated red blood cells”. The “histology of the ovaries” value in the series with inseminated mice (single dose on E1 or E7, all time points) was “appeared normal”.
